{"source": "patent US20180100201A1", "about": "“TUMOR AND MICROENVIRONMENT GENE EXPRESSION, COMPOSITIONS OF MATTER AND METHODS OF USE THEREOF” (The Broad Institute Inc., priority 2015, published 2018)", "origin": "cited, not measured here"}
{"test_system": "Factor VII", "details": "LNP siRNA systems containing these lipids"}
{"molecule": "1,2-dilinoleyloxy-keto-N,N-dimethyl-3-aminopropane [DLinKDMA]", "gene silencing potency in hepatocytes in vivo, series": "DLinKC2-DMA>DLinKDMA>DLinDMA>>DLinDAP"}
{"molecule": "CCCCC/C=C\\C/C=C\\CCCCCCCC(=O)OCC(CN(C)C)OC(=O)CCCCCCC/C=C\\C/C=C\\CCCCC", "note": "(stereo not shown) [DLinDAP, 1,2-dilineoyl-3-dimethylammonium-propane]", "gene silencing potency in hepatocytes in vivo, series": "DLinKC2-DMA>DLinKDMA>DLinDMA>>DLinDAP"}
{"molecule": "CCCCC/C=C\\C/C=C\\CCCCCCCCOCC(CN(C)C)OCCCCCCCC/C=C\\C/C=C\\CCCCC", "note": "(stereo not shown) [DLinDMA, 1,2-dilinoleyloxy-3-N,N-dimethylaminopropane]", "gene silencing potency in hepatocytes in vivo, series": "DLinKC2-DMA>DLinKDMA>DLinDMA>>DLinDAP"}
{"molecule": "CCCCC/C=C\\C/C=C\\CCCCCCCCC1(CCCCCCCC/C=C\\C/C=C\\CCCCC)OCC(CCN(C)C)O1", "note": "(stereo not shown) [DLinKC2-DMA, 1,2-dilinoleyl-4-(2-dimethylaminoethyl)-[1,3]-dioxolane]", "gene silencing potency in hepatocytes in vivo, series": "DLinKC2-DMA>DLinKDMA>DLinDMA>>DLinDAP"}
